Reference: paper PMC2121212 (The Journal of Experimental Medicine, 2006)
No end group written: not given here.

How the values were obtained:
[1] = test system: antigen-specific T cell hybridomas stimulated by APCs that do or do not express DM; type: cell-based, murine; settings: for DM enhancement (fold DM effect): overnight, CTLL/MTT read-out
[2] = test system: antigen-specific T cells stimulated by APCs that do or do not express DM; test: Presentation from native protein versus MalE; type: cell-based, murine; settings: native protein vs MalE (Fig. S1)
I-A^d = molecular target: T1, I-A^d (Mus musculus, UniProt P01921+P04228); type: binding, murine
T1 sequence (P04228 24-111 limits assumed): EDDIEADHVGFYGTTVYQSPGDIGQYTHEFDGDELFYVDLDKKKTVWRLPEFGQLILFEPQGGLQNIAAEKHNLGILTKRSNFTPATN
T1 sequence (P01921 28-122 limits assumed): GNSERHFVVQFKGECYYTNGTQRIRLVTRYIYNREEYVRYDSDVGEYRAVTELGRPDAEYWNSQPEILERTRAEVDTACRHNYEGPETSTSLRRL

[3] = test system: additional HEL [11–25]–specific and LACK [156–173]–specific T cell hybridomas; test: Presentation to additional independently derived T cell hybridomas; type: cell-based, murine; settings: compared with original T cells
CD4 T cell response = settings: in vivo response to variant when encoded in MalE (Fig. 4); ref [28]; cited from earlier work

Q: What does the source list for “HA [126–138]: derived from the influenza hemagglutinin molecule (HNTNGVTAACSHE) [reference compound]”?
A: Presentation of synthetic peptide pulsed on DM^+ vs DM^− APCs ([1]; APCs pulsed with peptide instead of protein (Fig. 1 G, H; Fig. 2 B)): equivalent; Effect of DM expression on presentation ([1]; epitope encoded within MalE, DM^+ vs DM^− APCs (Figs. 1 and 2, Table II)): modestly antagonized

Q: What does the source list for “HEL [11-25]: cryptic epitope derived from HEL, which has an unstable interaction with class II molecules (AMKRHGLDNYRGYSL; also: fluorescein (FITC) label, position not given here) [reference compound]”?
A: Fold more protein required on APCs expressing DM (antagonism) [1]: ~10 fold; Influence of protein context on DM-mediated presentation [2]: independent of the protein context from which the peptide epitope is derived

Q: What does the source list for “R14Q, N19A, G22S: triple substitution HEL [11–25] variant (AMKQHGLDAYRSYSL; also: fluorescein (FITC) label, position not given here)”?
A: Increase in kinetic stability (I-A^d): threefold; DM enhancement (fold DM effect) [1]: 29.7 ± 7.6 fold; DM effect detected by additional T cell hybridomas [3]: confirmed this effect on the efficiency of presentation pattern with two additional, independently derived HEL [11–25]–specific hybridomas

Q: Which “Immunogenicity of variant encoded in MalE” value (“Immunogenicity” below) (CD4 T cell response) does the source give for “T128G: HA [126–138] P1 substitution (T128G) (HNGNGVTAACSHE)” here?
A: Its value is “cryptic”.

Q: For “T128M: high stability HA variant T128M (HNMNGVTAACSHE)”, which “Immunogenicity” value (CD4 T cell response) is on record?
A: The value was “immunogenic”.

Q: Which “DM enhancement (fold DM effect)” value [1] does the source give for “T128Q: kinetic stability variant of HA [126–138] (HNQNGVTAACSHE)” here?
A: The value was 3.5 ± 0.7 fold.

Q: What about the “Immunogenicity” value (CD4 T cell response) of the same substance?
A: The value was “immunogenic”.

Q: For “T128V, S136T: kinetic stability variant of HA [126–138] (HNVNGVTAACTHE)”, which “Immunogenicity” value (CD4 T cell response) is on record?
A: Its value is “cryptic”.

Q: Which “Immunogenicity” value (CD4 T cell response) does the source give for “V131A: HA [126–138] P4 substitution (V131A) (HNTNGATAACSHE)” here?
A: Its value is “cryptic”.
